Results as given in patent publication US7511074B2, “Tetrafluorobenzyl derivatives and pharmaceutical composition for preventing and treating acute and chronic neurodegenerative diseases in central nervous system containing the same” (AmKor Pharma, Inc., priority 2002, dated 2009).

How the values were obtained:
[1] = tested on: Sprague-Dawley rats, occlusion of middle cerebral artery; experiment: Transient focal cerebral ischemia (60 min MCAO), infarct volume; assay type: in vivo, rat
Protocol: Adult rats received transient cerebral ischemia by occluding right middle cerebral artery and both common carotid arteries for 60 min with intraperitoneal injections of vehicle or 50 mg/kg 2-Hydroxy-TTBA at 5 min, 30 min, or 1 hr after reperfusion. Infarct volume was analyzed 24 hr later after staining brain slices with 2% 2,3,5-triphenyltetrazolium chloride (TTC), mean ±SEM (n=8-11 rats per each condition). *, Significant difference from the vehicle control, p<0.05 using ANOVA and Student-Neuman-Keuls' test.
Adult rats received transient cerebral ischemia by occluding right middle cerebral artery and both common carotid arteries for 60 min with intraperitoneal injections of vehicle (control) or 50 or 100 mg/kg 2-Hydroxy-TTBA at 5 min after reperfusion. Infarct volume was analyzed 24 hr later after staining brain slices with 2% 2,3,5-triphenyltetrazolium chloride (TTC), mean ±SEM (n=7-8 rats per each condition). *, Significant difference from the vehicle control, p<0.05 using ANOVA and Student-Neuman-Keuls' test.
(§1) Adult rats received transient cerebral ischemia by occluding right middle cerebral artery and both common carotid arteries for 60 min, with intravenous injections of vehicle (control) or 5 mg/kg 2-Hydroxy-TTBA at 30 min after occlusion or 5 min, 30 min, 1 hr, 2 hr, or 4 hr after reperfusion. Infarct volume was analyzed 24 hr later, mean ±SEM (n=8-11 rats per each condition). *, Significant difference from the vehicle control, p<0.05 using ANOVA and Student-Neuman-Keuls' test.
as §1, with “or 1, 2.5, 5, 10 or 20” for “or 5”, “at 5” for “at 30”, “min” for “min after occlusion or 5 min, 30 min, 1 hr, 2 hr, or 4 hr”, “±SEM (n=8-10” for “±SEM (n=8-11”
as §1, with “with oral administrations” for “with intravenous injections”, “or 10 or 20” for “or 5”, “at 5” for “at 30”, “min” for “min after occlusion or 5 min, 30 min, 1 hr, 2 hr, or 4 hr”, “±SEM (n=8-10” for “±SEM (n=8-11”
Sprague-Dawley rats were anesthetized with chloral hydrate, and subjected to focal cerebral ischemia by occlusion of middle cerebral artery (MCAO) as previously described [Tamura et al., J. Cerebr. Blood Flow Metab. 1:53-60 (1981)]. Both common carotid arteries (CCAs) were exposed and right middle cerebral artery (rMCA) was exposed under the surgical microscope by making a 3 mm diameter craniotomy rostral to the foramen ovale. CCAs and rMCA were occluded with microclips. The clips were released 60 min later and restoration of blood flow in rMCA was observed under the microscope
Animals received MCAO for 60 min, alone or with administration of 2-Hydroxy-TTBA (50 mg/kg, i.p.) at indicated points of time after reperfusion. Saline was injected as a control. Animals were euthanized 24 hr later and brains removed and sectioned coronally into seven 2-mm slices in a brain matrix. […] The infarction area, outline in white, was measured (TINA image analysis system) and infarction volume was calculated by summing the infarct volume showing white of sequential 2-mm-thick section, mean ±SEM (n=8-12 rats/condition) (FIG. 8a). […]

[2] = tested on: Sprague-Dawley rats, compression of T8 spinal cord; experiment: Mitochondrial ROS production after traumatic spinal cord injury; assay type: in vivo, rat; conditions: 50 mg/kg ip immediately after injury; analyzed 48 hr later
Protocol: Adult rats received compression injury at the level of T8 spinal cord, alone (control) or with injections of 2-Hydroxy-TTBA (50 mg/kg, ip) and Mitotracker CM-H2X ROS immediately after injury. Animals were euthanized 2 d later, spinal cord sections sections immunostained with an antibody for NeuN (a neuronal marker protein), and levels of mitochondrial ROS in the dorsal horn neurons (DHN) analyzed by measuring fluorescence intensity of oxidized Mitotracker CM-H2X, mean ±S.E.M. [n=12 rats for each condition (5 spinal cord sections for each rat)]. *, Significant difference from the vehicle control, p<0.05 using the independent t-test.
Sprague-Dawley rats (250-300 g, female) received traumatic spinal cord injury by compression of the dorsal spinal cord. T8 segment of spinal cord was exposed on the dorsal side, compressed with 20 g for 10 min, and then mitochondrial CM-H2X Ros was immediately injected into the spinal cord. 2-Hydroxy-TTBA (50 mg/kg, ip) or a vehicle control (control) was injected with mitochondrial CM-H2X Ros. Levels of mitochondrial ROS in the dorsal horn neurons were analyzed 48 hr later as described above after immunolabeling with anti-NeuN antibody, a neuron-specific marker.

[3] = intravenous, 5 min after reperfusion, 60 min MCAO

O=C(O)c1cc(NCc2c(F)c(F)c(C(F)(F)F)c(F)c2F)ccc1O [2-Hydroxy-TTBA, 2-hydroxy-5-(2,3,5,6-tetrafluoro-4-trifluoromethylbenzylamino)benzoic acid]
time after reperfusion up to which delayed injection significantly attenuated infarct volume ([1]; 5 mg/kg intravenous, 60 min MCAO, infarct volume 24 hr later): up to 4 hr
time after reperfusion up to which delayed administration significantly reduced infarct volume ([1]; 50 mg/kg i.p., 60 min MCAO, infarct volume 24 hr later): up to 1 hr
infarct volume after oral administration ([1]; 10 or 20 mg/kg p.o. at 5 min after reperfusion, 24 hr after 60 min MCAO): reduced infarct volume
intravenous doses at which protective effects were observed [1, 3]: higher than 2.5 mg/kg
lowest intravenous dose attenuating infarct volume [1, 3]: ≥ 1 mg/kg
mitochondrial ROS production in spinal cord neurons [2]: significantly reduced mitochondrial ROS production
